These results are taken from patent publication US20220095618A1, “HERBICIDAL COMPOSITIONS” (SYNGENTA CROP PROTECTION AG, priority 2019, published 2022).

Assay in all cases: Post-emergence efficacy of compounds of Formula (I) (B1), glasshouse
Holding throughout (type): in vivo

The subject of one assay is Eleusine indica (ELEIN). The settings on record: Application Rate 500 g/Ha, evaluated after 13 days; for pest or weed control at 500 g/ha: Eleusine indica, post-emergence, 312 h, read-out: Control of ELEIN after post-emergence application (100=total damage to plant; 0=no damage to plant). How it is done: (§1) Seeds of a variety of test species were sown in standard Iaom-based soil in pots:— Ipomoea hederacea (IPOHE), Euphorbia heterophylla (EPHHL), Chenopodium album (CHEAL), Amaranthus palmeri (AMAPA), Lolium perenne (LOLPE), Digitaria sanguinalis (DIGSA), Eleusine indica (ELEIN), Echinochloa crus-galli (ECHCG), Setaria faberi (SETFA). After cultivation for 14 days (post-emergence) under controlled conditions in a glasshouse (at 24/16° C., day/night; 14 hours light; 65% humidity), the plants were sprayed with an aqueous spray solution derived from the dissolution of the technical active ingredient Formula (I) in a small amount of acetone and a special solvent and emulsifier mixture referred to as IF50 (11.12% Emulsogen EL360 TM+44.44% N-methylpyrrolidone+44.44% Dowanol DPM glycol ether), to create a 50 g/I solution which was then diluted to required concentration using 0.25% or 1% Empicol ESC70 (Sodium lauryl ether sulphate)+1% ammonium sulphate as diluent. The delivery of the aqueous spray solution was via a laboratory track sprayer which delivered the aqueous spray composition at a rate of 200 litres per hectare, using a flat fan nozzle (Teejet 11002VS) and an application volume of 200 litre/ha (at 2 bar).
(§2) The test plants were then grown in a glasshouse under controlled conditions (at 24/16° C., day/night; 14 hours light; 65% humidity) and watered twice daily. After 13 days the test was evaluated (100=total damage to plant; 0=no damage to plant).

For assay [1], the system named is Euphorbia heterophylla (EPHHL). As to conditions: Application Rate 500 g/Ha, evaluated after 13 days; for pest or weed control at 500 g/ha: Euphorbia heterophylla, post-emergence, 312 h, read-out: Control of EPHHL after post-emergence application (100=total damage to plant; 0=no damage to plant). How it is done:
as §1, §2

A further assay relates to Lolium perenne (LOLPE). The settings on record: Application Rate 500 g/Ha, evaluated after 13 days; for pest or weed control at 500 g/ha: Lolium perenne, post-emergence, 312 h, read-out: Control of LOLPE after post-emergence application (100=total damage to plant; 0=no damage to plant). How it is done: as §1, §2
Assay [2] deals with Echinochloa crus-galli (ECHCG). The settings on record: Application Rate 500 g/Ha, evaluated after 13 days; for pest or weed control at 500 g/ha: Echinochloa crus-galli, post-emergence, 312 h, read-out: Control of ECHCG after post-emergence application (100=total damage to plant; 0=no damage to plant). On the procedure: as §1, §2
Assay [3] deals with Chenopodium album (CHEAL). As to conditions: Application Rate 500 g/Ha, evaluated after 13 days; for pest or weed control at 500 g/ha: Chenopodium album, post-emergence, 312 h, read-out: Control of CHEAL after post-emergence application (100=total damage to plant; 0=no damage to plant). How it is done:
as §1, §2

The subject of assay [4] is Ipomoea hederacea (IPOHE). As to conditions: Application Rate 500 g/Ha, evaluated after 13 days; for pest or weed control at 500 g/ha: Ipomoea hederacea, post-emergence, 312 h, read-out: Control of IPOHE after post-emergence application (100=total damage to plant; 0=no damage to plant). On the procedure:
as §1, §2

In assay [5] the test system is Digitaria sanguinalis (DIGSA). As to conditions: Application Rate 500 g/Ha, evaluated after 13 days; for pest or weed control at 500 g/ha: Digitaria sanguinalis, post-emergence, 312 h, read-out: Control of DIGSA after post-emergence application (100=total damage to plant; 0=no damage to plant). On the procedure: as §1, §2
Assay [6] concerns Amaranthus palmeri (AMAPA). As to conditions: Application Rate 500 g/Ha, evaluated after 13 days; for pest or weed control at 500 g/ha: Amaranthus palmeri, post-emergence, 312 h, read-out: Control of AMAPA after post-emergence application (100=total damage to plant; 0=no damage to plant). On the procedure:
as §1, §2

Another assay deals with Setaria faberi (SETFA). As to conditions: Application Rate 500 g/Ha, evaluated after 13 days; for pest or weed control at 500 g/ha: Setaria faberi, post-emergence, 312 h, read-out: Control of SETFA after post-emergence application (100=total damage to plant; 0=no damage to plant). On the procedure:
as §1, §2

SMILES strings stand for the structures.

For the molecule `COC(=O)CC[n+]1ccc(-c2cnccn2)cn1` [Compound 1.013, methyl 3-(4-pyrazin-2-ylpyridazin-1-ium-1-yl)propanoate chloride], the pest or weed control at 500 g/ha with Eleusine indica (ELEIN) was 100%; in assay [1], 100%; with Lolium perenne (LOLPE) it was 70%; in [2], 80%; in assay [3], 90%; in [4], 80%. The pest or weed control at 500 g/ha (in assay [5]; in [6]; in the assay on Setaria faberi (SETFA)) was 100% each time.

On to `O=S(=O)([O-])CCC[n+]1ccc(-c2ncccn2)cn1` [Compound 1.003, 3-(4-pyrimidin-2-ylpyridazin-1-ium-1-yl)propane-1-sulfonate], for which the pest or weed control at 500 g/ha worked out at 100% with Eleusine indica (ELEIN); 100% in assay [1]; 60% in the assay on Lolium perenne (LOLPE); 80% in assay [2]; 100% in assay [3]; 60% in [4]. For the same molecule, the pest or weed control at 500 g/ha (in [5]; in assay [6]; in the assay on Setaria faberi (SETFA)) was 100% throughout.

`CC(C)(C[n+]1ccc(-c2ncccn2)cn1)C(=O)O` [Compound 1.022]: the pest or weed control at 500 g/ha worked out at 100% in the assay with Eleusine indica (ELEIN); 100% in assay [1]; 60% with Lolium perenne (LOLPE); 90% in [2]; 80% in assay [3]; 100% in assay [4]. Besides, the pest or weed control at 500 g/ha (in [5]; in assay [6]; with Setaria faberi (SETFA)) was 100% each time.

`O=C(O)CC[n+]1ccc(-c2ncccn2)cn1.[Br-]` [Compound 1.021, 3-(4-pyrimidin-2-ylpyridazin-1-ium-1-yl)propanoic acid bromide]: the “Control of ELEIN after post-emergence application (100=total damage to plant; 0=no damage to plant)” value in the assay with Eleusine indica (ELEIN) is 100. Also, in assay [1], the “Control of EPHHL after post-emergence application (100=total damage to plant; 0=no damage to plant)” value is 100. Also, the pest or weed control at 500 g/ha with Lolium perenne (LOLPE) was 70%; in assay [6], 100%. The “Control of ECHCG after post-emergence application (100=total damage to plant; 0=no damage to plant)” value in [2] came to 100. Further, in [3], the “Control of CHEAL after post-emergence application (100=total damage to plant; 0=no damage to plant)” value came out at 100. Also, the “Control of IPOHE after post-emergence application (100=total damage to plant; 0=no damage to plant)” value in assay [4] was found to be 100. Besides, the “Control of DIGSA after post-emergence application (100=total damage to plant; 0=no damage to plant)” value in assay [5] is reported as 100. The “Control of SETFA after post-emergence application (100=total damage to plant; 0=no damage to plant)” value with Setaria faberi (SETFA) amounted to 100.

With `Cl.O=S(=O)([O-])CC[n+]1ccc(-c2cccnn2)cn1` [Compound 1.031, 2-(4-pyridazin-1-ium-3-ylpyridazin-1-ium-1-yl)ethanesulfonate chloride], the pest or weed control at 500 g/ha was 100% in the assay on Eleusine indica (ELEIN); 100% in assay [1]; 90% in the assay on Lolium perenne (LOLPE); 100% in [2]; 90% in assay [3]; 100% in [5]. The pest or weed control at 500 g/ha (in assay [6]; in the assay on Setaria faberi (SETFA)) was 100% throughout. Also, in [4], the “Control of IPOHE after post-emergence application (100=total damage to plant; 0=no damage to plant)” value was 70.

`O=S(=O)([O-])CC[n+]1ccc(-c2cccnn2)cn1` [Compound 1.002, 2-(4-pyridazin-3-ylpyridazin-1-ium-1-yl)ethanesulfonate]: the “Control of ELEIN after post-emergence application (100=total damage to plant; 0=no damage to plant)” value with Eleusine indica (ELEIN) was found to be 100. Moreover, the “Control of EPHHL after post-emergence application (100=total damage to plant; 0=no damage to plant)” value in assay [1] amounted to 100. Further, the “Control of LOLPE after post-emergence application (100=total damage to plant; 0=no damage to plant)” value in the assay on Lolium perenne (LOLPE) is 100. Also, the “Control of ECHCG after post-emergence application (100=total damage to plant; 0=no damage to plant)” value in [2] stood at 100. For the same molecule, in assay [3], the “Control of CHEAL after post-emergence application (100=total damage to plant; 0=no damage to plant)” value is listed as 100. For the same molecule, in assay [4], the “Control of IPOHE after post-emergence application (100=total damage to plant; 0=no damage to plant)” value was determined as 40. Moreover, the “Control of DIGSA after post-emergence application (100=total damage to plant; 0=no damage to plant)” value in [5] is reported as 100. Moreover, the “Control of AMAPA after post-emergence application (100=total damage to plant; 0=no damage to plant)” value in [6] came out at 100. Besides, in the assay with Setaria faberi (SETFA), the “Control of SETFA after post-emergence application (100=total damage to plant; 0=no damage to plant)” value is 90.

Consider `O=S(=O)(O)CC[n+]1ccc(-c2cnccn2)cn1` [Compound 1.004], for which the pest or weed control at 500 g/ha with Eleusine indica (ELEIN) was 100%; in [1], 100%; with Lolium perenne (LOLPE) it was 60%; in [2], 80%; in assay [3] it was 100%; in [4] it was 60%. In addition, the pest or weed control at 500 g/ha in [5] is 100%; in assay [6] it was 100%; in the assay with Setaria faberi (SETFA) it was 90%.

For the molecule `CC(C[n+]1ccc(-c2ncccn2)cn1)C(=O)O` (stereo not drawn) [Compound 1.024], the pest or weed control at 500 g/ha in the assay with Eleusine indica (ELEIN) was 100%; in [1], 100%; in the assay on Lolium perenne (LOLPE), 80%; in assay [2], 100%; in [3] it was 90%; in [4], 40%. For the same molecule, the pest or weed control at 500 g/ha in assay [5] was 90%; in [6], 100%; in the assay on Setaria faberi (SETFA) it was 100%.

In the case of `N[C@@H](CC[n+]1ccc(-c2ncccn2)cn1)C(=O)O` [Compound 1.035, [(1S)-1-carboxy-3-(4-pyrimidin-2-ylpyridazin-1-ium-1-yl)propyl]-ammonium 2,2,2-trifluoroacetate], the pest or weed control at 500 g/ha was found to be 100% in the assay with Eleusine indica (ELEIN); 90% in assay [1]; 20% in the assay on Lolium perenne (LOLPE); 60% in assay [2]; 100% in assay [3]; 90% in [4]. In addition, the pest or weed control at 500 g/ha came to 90% in [5], 100% in assay [6] and 100% with Setaria faberi (SETFA).

Turning to `O=S(=O)([O-])CC[n+]1ccc(-c2ccncc2)cn1` [Compound 1.007], the pest or weed control at 500 g/ha was determined as 100% in the assay with Eleusine indica (ELEIN); 40% in assay [1]; 90% with Lolium perenne (LOLPE); 80% in assay [2]; 100% in assay [3]; 30% in [4]. Also, the pest or weed control at 500 g/ha in assay [5] turned out to be 100%; in assay [6], 100%; in the assay on Setaria faberi (SETFA), 70%.

As to `O=S(=O)([O-])CC[n+]1ccc(-c2ncccn2)cn1` [Compound 1.001, 2-(4-pyrimidin-2-ylpyridazin-1-ium-1-yl)ethanesulfonate], the pest or weed control at 500 g/ha with Eleusine indica (ELEIN) turned out to be 100%; in assay [1], 100%; in the assay with Lolium perenne (LOLPE), 70%; in assay [2], 70%; in assay [3] it was 100%; in assay [4], 100%. Besides, the pest or weed control at 500 g/ha (in [5]; in assay [6]; in the assay on Setaria faberi (SETFA)) was 100% in each case.
